From US10058533B2, “Pharmaceutical composition containing Ginkgolide B and Xa factor inhibitor, preparation method thereof and use thereof” (CHENGDU BAIYU PHARMACEUTICAL CO., LTD, priority 2014, dated 2018)

Tests used:
[1] = system: coagulation function (PT); assay: PT of coagulation function, rabbit wound-limb deep venous thrombosis forming model; type: in vivo; settings: 5 mg/kg i.g., x ± SD
Method: (§1) Eight were taken as control group and the rest were treated by a striking device. Striking area was a round surface with the diameter of 1.5 cm, the wounding energy was calculated according to Ep=mgh, and the energy of each striking of the iron rod is 7.5 J.
(§2) Specifically: the rabbit was anesthetized by intravenous injection of 3% pentobarbital sodium at ear edge with the dose of 1 ml/kg. The rabbit was kept laying down at right side prostrate position and the left thigh was set on the striking platform. Found the trochanter of the left femur and set the striking head attached to area from the trochanter to the 1.5 cm below. The self-made striking device was used for striking the outer side of the thigh near-end, and the plaster was used for fixing the left limb on the hip/knee-bending area. When the plaster bandage was applied and the right hip was examined to move freely, the rabbit was kept to lay down until solidification. After the model establishment, the animal was allowed to drink water normally and was fed with granular food. No anticoagulant or antibiotic was used.
(§3) Animals were grouped after modeling. The drug was fed according to table 4 via oral gavage, once a day for 7 days continuously.
(§4) At 0.5, 1.0, 2.0, 3.0 and 4.0 h after the first administration, blood was taken from ear central artery. Plasma was separated and aPPT, PT and the anti-factor Xa activity were determined on an automatic coagulation detector.

[2] = system: PAF (Platelet activating factor); assay: Plasma PAF content by ELISA, rabbit wound-limb deep venous thrombosis forming model; type: in vivo; settings: for PAF content (x ± SD): rabbit wound-limb deep venous thrombosis model, *p<0.05, **p<0.01, ***p<0.001 vs model group
Method: as §2, with “Eight were taken as control group and the rest were treated by a striking device. […] Specifically:” for “Specifically:”, “Found the trochanter of the left femur and set the striking head attached to area from the trochanter to the 1.5 cm below.” left out, “used. Animals were grouped after modeling. The drug was fed according to table 4 via oral gavage, once a day for 7 days continuously. At 0.5, 1.0, 2.0, 3.0 and 4.0 h after the first administration, blood was taken from ear central artery. Plasma was separated and the content of PAF was determined by ELISA.” for “used.”

[3] = system: coagulation function (aPTT); assay: aPTT of coagulation function, rabbit wound-limb deep venous thrombosis forming model; type: in vivo; settings: for aPPT: 5 mg/kg i.g., x ± SD
Method: as §1, §2, §3, §4

factor Xa [4] = assay: Anti-coagulation factor Xa activity in vitro (chromogenic substrate assay); type: biochemical, rabbit
Method: A chromogenic substrate assay was adopted, and plasma anti-Xa activity was determined on a microplate reader according to a kit specification and reference documents.

factor Xa [5] = assay: Plasma anti-factor Xa activity, rabbit wound-limb deep venous thrombosis forming model; type: in vivo
Method: as §1, §2, §3, §4

[6] = system: venous thromboembolism (VTE); settings: cited from earlier work
[7] = in vivo; cited from earlier work
[8] = plasma, 5 mg/kg i.g., 0.5 h after administration, x ± SD
[9] = plasma, 5 mg/kg i.g., 1 h after administration, x ± SD
[10] = plasma, 5 mg/kg i.g., 2 h after administration, x ± SD
[11] = plasma, 5 mg/kg i.g., 3 h after administration, x ± SD
[12] = plasma, 5 mg/kg i.g., 4 h after administration, x ± SD

| Molecule | PT ([1]; 0.5 h after administration) [s] | PT ([1]; 1 h after administration) [s] | PT ([1]; 2 h after administration) [s] | PT ([1]; 3 h after administration) [s] | PT ([1]; 4 h after administration) [s] | PAF content (x ± SD) ([2]; 1 h after administration) [ng/L] | PAF content (x ± SD) ([2]; 3 h after administration) [ng/L] | PAF content compared to model group ([2]; 4 h after administration) | aPPT ([3]; 0.5 h after administration) [s] | aPPT ([3]; 1 h after administration) [s] | aPPT ([3]; 2 h after administration) [s] | aPPT ([3]; 3 h after administration) [s] | aPPT ([3]; 4 h after administration) [s] | aPTT compared with model group ([3]; 1 h after administration) | anti-factor Xa activity (factor Xa [4]) [IU/ml] | anti-factor Xa activity (factor Xa [5]; [8]) [IU/ml] | anti-factor Xa activity (factor Xa [5]; [9]) [IU/ml] | anti-factor Xa activity (factor Xa [5]; [10]) [IU/ml] | anti-factor Xa activity (factor Xa [5]; [11]) [IU/ml] | anti-factor Xa activity (factor Xa [5]; [12]) [IU/ml] | also measured |
| --- | --- | --- | --- | --- | --- | --- | --- | --- | --- | --- | --- | --- | --- | --- | --- | --- | --- | --- | --- | --- | --- |
| O=C(NC[C@H]1CN(c2ccc(N3CCOCC3=O)cc2)C(=O)O1)c1ccc(Cl)s1 [Rivaroxaban] | 6.76 ± 0.30 | 7.20 ± 0.96 | 6.90 ± 0.34 | 6.81 ± 0.22 | 6.70 ± 0.33 | 1484.29 ± 129.00 | 1671.43 ± 236.95 | extremely significant decrease | 27.89 ± 7.97 | 32.01 ± 9.31 | 34.63 ± 5.57 | 35.92 ± 10.85 | 29.20 ± 6.32 | obviously extended | 0.54 | 0.37 ± 0.09 | 0.31 ± 0.13 | 0.18 ± 0.05 | 1.32 ± 0.16 | 1.38 ± 0.18 | PAF content (x ± SD) ([2]; 0.5 h after administration): 886.43 ± 314.24 ng/L; anti-factor Xa activity (factor Xa [5]; 0.5 h-4 h after administration): extremely significant difference |
| CN(C)Cc1nccn1-c1ccc(NC(=O)c2cc(C(F)(F)F)nn2-c2ccc3onc(N)c3c2)c(F)c1 [Razaxaban] | 6.71 ± 0.25 | 7.41 ± 0.51 | 6.47 ± 0.25 | 6.47 ± 0.41 | 6.70 ± 0.25 | 1501.29 ± 131.10 | 1641.26 ± 242.32 | decreased significantly | 20.13 ± 6.74 | 26.23 ± 8.43 | 22.33 ± 4.46 | 35.75 ± 8.68 | 29.65 ± 9.72 | no obvious extension | 0.86 | 0.20 ± 0.14 | 0.18 ± 0.05 | 0.23 ± 0.08 | 1.31 ± 0.30 | 1.32 ± 0.09 | PAF content (x ± SD) ([2]; 0.5 h after administration): 889.42 ± 326.32 ng/L; VTE occurrence rate compared with enoxaparin ([6]; patients taking Razaxaban 25 mg, total knee replacement): significantly lower; occurrence rate of large bleeding compared with enoxaparin ([6]; patients taking Razaxaban 25 mg): similar; large bleeding compared with Enoxaparin ([6]; patients taking Razaxaban 50-100 mg): more likely to have large bleeding |
| COc1ccc(-n2nc(C(N)=O)c3c2C(=O)N(c2ccc(N4CCCCC4=O)cc2)CC3)cc1 [Apixaban] |  |  |  |  |  | 1543.57 ± 239.95 | 1865.71 ± 371.23 | extremely significant decrease | 19.05 ± 6.17 | 24.26 ± 7.89 | 23.94 ± 5.49 | 31.71 ± 8.53 | 29.21 ± 11.35 | no obvious extension | 1.07 | 0.16 ± 0.10 | 0.26 ± 0.04 | 0.25 ± 0.10 | 1.22 ± 0.22 | 1.12 ± 0.15 | PAF content (x ± SD) ([2]; 2 h after administration): 1117.86 ± 231.52 ng/L; anti-factor Xa activity (factor Xa [5]; 0.5 h-4 h after administration): extremely significant difference |
| Otamixaban | 6.58 ± 0.45 | 6.74 ± 0.26 | 6.52 ± 0.43 | 6.62 ± 0.42 | 7.82 ± 0.31 | 1526.56 ± 212.31 | 1745.52 ± 356.26 | decreased significantly | 21.67 ± 9.42 | 25.71 ± 7.68 | 25.61 ± 6.75 | 34.62 ± 7.59 | 30.16 ± 9.37 | no obvious extension | 1.03 | 0.19 ± 0.04 | 0.25 ± 0.10 | 0.26 ± 0.14 | 1.25 ± 0.12 | 1.24 ± 0.06 | PAF content (x ± SD) ([2]; 2 h after administration): 1123.45 ± 224.51 ng/L; excretion through kidney [7]: less than 25% |
| CN1CCc2nc(C(=O)N[C@@H]3C[C@@H](C(=O)N(C)C)CC[C@@H]3NC(=O)C(=O)Nc3ccc(Cl)cn3)sc2C1 [Edoxaban] | 6.73 ± 0.15 | 6.14 ± 0.26 | 6.28 ± 0.42 | 6.45 ± 0.65 | 6.42 ± 0.34 | 1236.72 ± 301.62 | 1623.43 ± 256.35 |  | 26.77 ± 7.65 | 25.01 ± 9.52 | 33.63 ± 5.45 | 36.47 ± 9.12 | 27.20 ± 6.31 | no obvious extension |  |  |  |  |  |  |  |
| CC1C(=O)OC2C(O)C34C5CC(C(C)(C)C)C36C(OC(=O)C6O)OC4(C(=O)O5)C12O (centres unmarked) [Ginkgolide B] | 6.76 ± 0.32 | 6.79 ± 0.27 | 6.75 ± 0.36 | 6.72 ± 0.24 | 6.68 ± 0.23 | 1255.71 ± 300.73 | 1656.43 ± 259.36 |  | 25.89 ± 8.15 | 30.65 ± 6.79 | 25.83 ± 5.96 | 34.30 ± 6.56 | 31.92 ± 7.77 | obviously extended | 0.57 | 0.08 ± 0.07 | 0.10 ± 0.10 | 0.35 ± 0.22 | 0.74 ± 0.15 | 0.65 ± 0.12 | PAF content compared to model group ([2]; 2 h after administration): decreased significantly; anti-factor Xa activity (factor Xa [5]; 0.5 h-4 h after administration): increased with time |
